Test results from patent US4921860A, “Quinuclidyl- and tropanyl-pyridyl ethers as 5-HT3 receptor antagonists” (John Wyeth and Brother, Limited, priority 1987, dated 1990).

Legend:
5-HT3 receptors [1] = target: T1, 5-HT3 receptors (Rattus norvegicus, UniProt P35563); assay: 5-HT3 receptor antagonism in the isolated vagus nerve of the rat (5-HT induced depolarisation); type: cell-based; conditions: isolated rat cervical vagus nerve; estimated from 5-HT concentration ratios; read-out: apparent pKB (KB is the antagonist dissociation constant) (converted)
T1 construct: tested for 5-HT3 receptor antagonism in the isolated vagus nerve of the rat; from tissue; host or cells: isolated cervical vagus nerve of the rat
T1 sequence (P35563 24-483): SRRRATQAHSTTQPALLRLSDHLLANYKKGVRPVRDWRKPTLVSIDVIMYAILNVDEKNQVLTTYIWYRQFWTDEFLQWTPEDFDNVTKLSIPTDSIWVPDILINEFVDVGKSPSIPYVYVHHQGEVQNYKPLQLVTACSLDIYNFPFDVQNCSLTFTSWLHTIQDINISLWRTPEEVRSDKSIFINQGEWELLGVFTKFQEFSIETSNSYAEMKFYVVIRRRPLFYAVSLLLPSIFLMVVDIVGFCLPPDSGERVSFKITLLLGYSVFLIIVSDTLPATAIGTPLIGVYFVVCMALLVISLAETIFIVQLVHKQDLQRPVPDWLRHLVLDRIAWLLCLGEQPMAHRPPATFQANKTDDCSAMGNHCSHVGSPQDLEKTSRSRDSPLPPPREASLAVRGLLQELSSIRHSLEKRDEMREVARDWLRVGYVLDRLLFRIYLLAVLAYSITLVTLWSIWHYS
Procedure: The pyridyl ethers are tested for 5-HT3 receptor antagonism in the isolated vagus nerve of the rat by a method based upon that of Ireland S. J. and Tyers M. B. Brit. J. Phamacol., 1987, 90, 229-238. The procedure relies upon the ability of 5-HT to induce depolaraisation of neurones in the cervical vagus nerve by a direct action of 5-HT3 receptors. A concentration response curve to 5-HT induced depolaraisation is obtained and the antagonists are added to the bath containing the isolated nerve before repeating the 5-HT concentration-response curve. Antagonist potency is estimated from the 5-HT concentration ratios and expressed as an apparent pKB value (where KB is the antagonist dissociation constant).

5-HT3 receptors [2] = target: T2, 5-HT3 receptors (Oryctolagus cuniculus, UniProt A0A5F9C9J3); assay: 5-HT3 antagonistic activity in the isolated right atrium of the rabbit heart; type: cell-based; conditions: 5-HT evoked increase in spontaneous rate, read-out: apparent PKB (converted)
T2 construct: 5-HT3 antagonistic activity in the isolated right atrium of the rabbit heart; from tissue; host or cells: isolated right atrium of the rabbit heart (sympathetic nerve terminals)
T2 sequence (A0A5F9C9J3 1-494): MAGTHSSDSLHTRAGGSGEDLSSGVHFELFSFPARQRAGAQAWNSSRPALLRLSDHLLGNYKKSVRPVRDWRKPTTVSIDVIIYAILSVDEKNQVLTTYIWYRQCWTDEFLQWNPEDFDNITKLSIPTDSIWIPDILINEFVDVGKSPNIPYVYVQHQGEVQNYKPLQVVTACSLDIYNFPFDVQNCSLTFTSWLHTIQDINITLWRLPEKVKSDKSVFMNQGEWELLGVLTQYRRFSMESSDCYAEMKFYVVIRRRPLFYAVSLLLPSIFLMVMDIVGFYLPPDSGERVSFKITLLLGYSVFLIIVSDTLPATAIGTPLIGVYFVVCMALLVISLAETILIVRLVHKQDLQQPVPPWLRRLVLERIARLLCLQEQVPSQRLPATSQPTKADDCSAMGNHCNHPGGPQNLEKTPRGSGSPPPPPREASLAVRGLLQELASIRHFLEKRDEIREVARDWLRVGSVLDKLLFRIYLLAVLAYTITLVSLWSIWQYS
Procedure: The compounds of the invention are also tested for 5-HT3 antagonistic activity in the isolated right atrium of the rabbit heart based upon the method of Fozard J. R., Naunyn-Schmiedeberg's Arch. Pharmacol., 1984, 326, 36-44. The procedures relies upon the ability of 5-HT to stimulate 5-HT3 receptors present on sympathetic nerve terminals in the heart, causing release of noradrenaline which evokes an increase in the spontaneous rate of […]. The antagonist potency is expressed in a similar manner to that of the preceding test method i.e. as an apparent PKB.

With `CN1[C@@H]2CC[C@H]1C[C@@H](Oc1ccccn1)C2` [Example 1, Endo 8 methyl-3-(2-pyridinyloxy)-8-azabicyclo[3.2.1]octane] the Kb (5-HT3 receptors [1]) was 631 nM and the Kd (5-HT3 receptors [2]) was 39.8 nM.
